From patent US20230339952A1, “MACROCYCLIC HETEROCYCLES AND USES THEREOF” (Kumquat Biosciences Inc., priority 2022, published 2023)

What was measured:
[1] = test system: NCI-H1975 (ATCC CRL-5908) cell line comprising an EGFR T790M L858R double mutation; experiment: EGFR-SOS cellular inhibition assay (CellTiter-Glo cell proliferation); format: cell-based; settings: Homo sapiens, 120 h; NCI-H1975 cell proliferation, approximately 5 days; read-out: H1975 IC50
Description: A CellTiter-Glo (CTG) luminescent based assay (Promega) is used to assess growth of the cells, as a measurement of the ability of the compounds herein to inhibit EGFR signaling in the cells. […] The day after plating, cells are treated with a dilution series (e.g., a 9 point 3-fold dilution series) of the compounds herein (e.g., approximately 125 μL final volume per well).

SOS1 = SOS1 (Homo sapiens (Human), UniProt Q07889); experiment: Ras-SOS interaction assay (HTRF), K-Ras G13D utilized; format: binding; settings: K-Ras G13D, read-out: SOS1 IC50
Sequence of SOS1 (Q07889 564-1049): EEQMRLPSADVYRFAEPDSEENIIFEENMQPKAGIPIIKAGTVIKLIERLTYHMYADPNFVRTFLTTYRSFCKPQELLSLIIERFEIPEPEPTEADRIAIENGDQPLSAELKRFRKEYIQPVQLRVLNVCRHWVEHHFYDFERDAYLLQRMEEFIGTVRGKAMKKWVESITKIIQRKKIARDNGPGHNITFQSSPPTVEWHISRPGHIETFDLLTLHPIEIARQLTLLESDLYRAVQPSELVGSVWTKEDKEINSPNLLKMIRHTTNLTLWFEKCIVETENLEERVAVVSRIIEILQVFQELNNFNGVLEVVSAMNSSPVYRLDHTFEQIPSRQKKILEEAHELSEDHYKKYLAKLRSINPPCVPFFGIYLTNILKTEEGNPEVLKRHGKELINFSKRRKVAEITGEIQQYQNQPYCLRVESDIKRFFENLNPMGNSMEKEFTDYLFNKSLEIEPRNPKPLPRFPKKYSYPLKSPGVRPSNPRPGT

Structure (SMILES)	IC50 [1] [nM]	IC50 (SOS1) [nM]
C[C@H]1Nc2ncnc3c2cc(C2CCS(=O)(=O)CC2)c(=O)n3CC(=O)N(C)CCCCN2CCC(CC2(C)C)C(F)(F)c2cccc1c2 (stereo partly drawn) [Compound 78, (1^4R,4R)-6^6-(1,1-dioxidotetrahydro-2H-thiopyran-4-yl)-2,2-difluoro-1^2,1^2,4,9-tetramethyl-6^7,6^8-dihydro-5,9-diaza-6(4,8)-pyrido[2,3-d]pyrimidina-1(4,1)-piperidina-3(1,3)-benzenacyclotridecaphane-6^7,8-dione]	< 1000	< 100
C/C1=C\CCCCn2c(=O)c(C3CCS(=O)(=O)CC3)cc3c(ncnc32)N[C@H](C)c2cccc(c2)C(F)(F)C2CCN(CC2)C1 [Compound 80, (4R,E)-6^6-(1,1-dioxidotetrahydro-2H-thiopyran-4-yl)-2,2-difluoro-4,12-dimethyl-6^7,6^8-dihydro-5-aza-6(4,8)-pyrido[2,3-d]pyrimidina-1(4,1)-piperidina-3(1,3)-benzenacyclotridecaphan-11-en-6^7-one]	< 1000	< 100
C[C@H]1Nc2ncnc3c2cc(C2CCS(=O)(=O)CC2)c(=O)n3CCCCCCCN2CCC(CC2)C(F)(F)c2cccc1c2 [Compound 83, (4R)-6^6-(1,1-dioxidotetrahydro-2H-thiopyran-4-yl)-2,2-difluoro-4-methyl-6^7,6^8-dihydro-5-aza-6(4,8)-pyrido[2,3-d]pyrimidina-1(4,1)-piperidina-3(1,3)-benzenacyclotridecaphan-6^7-one]	< 1000	< 100
C[C@H]1Nc2ncnc3c2cc(C2CCS(=O)(=O)CC2)c(=O)n3CCCCNC(=O)[C@H](C)N2CCC(CC2)C(F)(F)c2cccc1c2 [Compound 85, (4R,13S)-6^6-(1,1-dioxidotetrahydro-2H-thiopyran-4-yl)-2,2-difluoro-4,13-dimethyl-6^7,6^8-dihydro-5,11-diaza-6(4,8)-pyrido[2,3-d]pyrimidina-1(4,1)-piperidina-3(1,3)-benzenacyclotridecaphane-6^7,12-dione]	< 1000	< 100
C[C@H]1Nc2ncnc3c2cc(C2CCS(=O)(=O)CC2)c(=O)n3CCCCC[C@H](O)CN2CCC(CC2)C(F)(F)c2cccc1c2 [Compound 86, (4R,12S)-6^6-(1,1-dioxidotetrahydro-2H-thiopyran-4-yl)-2,2-difluoro-12-hydroxy-4-methyl-6^7,6^8-dihydro-5-aza-6(4,8)-pyrido[2,3-d]pyrimidina-1(4,1)-piperidina-3(1,3)-benzenacyclotridecaphan-6^7-one]	< 1000	< 100
C[C@H]1Nc2nnc(c3c2cc(C2CCS(=O)(=O)CC2)c(=O)n3C)OCCCCN2CCC(CC2)C(F)(F)c2cccc1c2F [Compound 87, (R)-6^3-(1,1-dioxidotetrahydro-2H-thiopyran-4-yl)-3^2,2,2-trifluoro-6^1,4-dimethyl-6^1,6^2-dihydro-7-oxa-5-aza-6(5,8)-pyrido[2,3-d]pyridazina-1(4,1)-piperidina-3(1,3)-benzenacycloundecaphan-6^2-one]	< 1000	100 to 5000
Cc1nc2c3cc(C4(C#N)CC4)c(=O)n(c3n1)CCCCCOCC(F)(F)c1cccc(c1F)[C@@H](C)N2 [Compound 88, 1-((3R)-4^2,5,5-trifluoro-1^2,3-dimethyl-1^7-oxo-1^7,1^8-dihydro-7-oxa-2-aza-1(4,8)-pyrido[2,3-d]pyrimidina-4(1,3)-benzenacyclododecaphane-1^6-yl)cyclopropane-1-carbonitrile]	> 10000	100 to 5000
C[C@H]1Nc2ncnc3c2cc(C2CCS(=O)(=O)CC2)c(=O)n3CCCCCCN2CC(CCC(F)(F)c3cccc1c3F)C2 [Compound 90, (3R)-1^6-(1,1-dioxidotetrahydro-2H-thiopyran-4-yl)-4^2,5,5-trifluoro-3-methyl-1^7,1^8-dihydro-2-aza-1(4,8)-pyrido[2,3-d]pyrimidina-8(3,1)-azetidina-4(1,3)-benzenacyclotetradecaphan-1^7-one]	< 1000	< 100
C[C@H]1Nc2ncnc3c2cc(C2CCS(=O)(=O)CC2)c(=O)n3CCCNC(=O)CCN2CCC(CC2)C(F)(F)c2cccc1c2 [Compound 91, (4R)-6^6-(1,1-dioxidotetrahydro-2H-thiopyran-4-yl)-2,2-difluoro-4-methyl-6^7,6^8-dihydro-5,10-diaza-6(4,8)-pyrido[2,3-d]pyrimidina-1(4,1)-piperidina-3(1,3)-benzenacyclotridecaphane-6^7,11-dione]	< 1000	< 100
C[C@H]1Nc2ncnc3c2cc(C2CCS(=O)(=O)CC2)c(=O)n3CC/C=C\CC(C)(C)CN2CCC(CC2)C(F)(F)c2cccc1c2 [Compound 92, (4R,Z)-6^6-(1,1-dioxidotetrahydro-2H-thiopyran-4-yl)-2,2-difluoro-4,12,12-trimethyl-6^7,6^8-dihydro-5-aza-6(4,8)-pyrido[2,3-d]pyrimidina-1(4,1)-piperidina-3(1,3)-benzenacyclotridecaphan-9-en-6^7-one]	< 1000	< 100
C[C@@H]1C(=O)NCCCCn2c(=O)c(C3CCS(=O)(=O)CC3)cc3c(ncnc32)N[C@H](C)c2cccc(c2)C(F)(F)C2CCN1CC2 [Compound 106, (4R,13R)-6^6-(1,1-dioxidotetrahydro-2H-thiopyran-4-yl)-2,2-difluoro-4,13-dimethyl-6^7,6^8-dihydro-5,11-diaza-6(4,8)-pyrido[2,3-d]pyrimidina-1(4,1)-piperidina-3(1,3)-benzenacyclotridecaphane-6^7,12-dione]	< 1000	< 100

Next, values leading:

IC50 [1] [nM]	IC50 (SOS1) [nM]	Structure (SMILES)
< 1000	< 100	C[C@H]1Nc2ncnc3c2cc(C2(C#N)CC2)c(=O)n3CCC/C=C/CN2CCC(CC2)CC(F)(F)c2cccc1c2F [Compound 89, 1-((3R,E)-4^2,5,5-trifluoro-3-methyl-1^7-oxo-1^7,1^8-dihydro-2-aza-1(4,8)-pyrido[2,3-d]pyrimidina-7(4,1)-piperidina-4(1,3)-benzenacyclotridecaphan-9-en-1^6-yl)cyclopropane-1-carbonitrile]
< 1000	< 100	C[C@H]1Nc2ncnc3c2cc(C2(C#N)CC2)c(=O)n3CCCCn2cc(nn2)CN2CCC(CC2)C(F)(F)c2cccc1c2 [Compound 94, 1-((6R,Z)-4,4-difluoro-6-methyl-8^7-oxo-8^7,8^8-dihydro-1^1H-7-aza-8(4,8)-pyrido[2,3-d]pyrimidina-3(1,4)-piperidina-1(4,1)-triazola-5(1,3)-benzenacyclododecaphane-8^6-yl)cyclopropane-1-carbonitrile]
< 1000	< 100	C[C@H]1Nc2ncnc3c2cc(C2(C#N)CC2)c(=O)n3CCCn2cc(nn2)CN2CCC(CC2)C(F)(F)c2cccc1c2 [Compound 95, 1-((6R,Z)-4,4-difluoro-6-methyl-8^7-oxo-8^7,8^8-dihydro-11H-7-aza-8(4,8)-pyrido[2,3-d]pyrimidina-3(1,4)-piperidina-1(4,1)-triazola-5(1,3)-benzenacycloundecaphane-8^6-yl)cyclopropane-1-carbonitrile]
< 1000	< 100	CC1C/C=C\CCCN2CCC(CC2)C(F)(F)c2cccc(c2F)[C@@H](C)Nc2ncnc3c2cc(C2(C#N)CC2)c(=O)n31 (stereo partly drawn) [Compound 97, 1-((4R,Z)-3^2,2,2-trifluoro-4,7-dimethyl-6^7-oxo-6^7,6^8-dihydro-5-aza-6(4,8)-pyrido[2,3-d]pyrimidina-1(4,1)-piperidina-3(1,3)-benzenacyclotridecaphan-9-en-6^6-yl)cyclopropane-1-carbonitrile]
< 1000	< 100	C[C@H]1Nc2ncnc3c2cc(C2(C#N)CC2)c(=O)n3CC(=O)NCCC[C@H](C)N2CCC(CC2)C(F)(F)c2cccc1c2F [Compound 98, 1-((4R,13S)-3^2,2,2-trifluoro-4,13-dimethyl-6^7,8-dioxo-6^7,6^8-dihydro-5,9-diaza-6(4,8)-pyrido[2,3-d]pyrimidina-1(4,1)-piperidina-3(1,3)-benzenacyclotridecaphane-6^6-yl)cyclopropane-1-carbonitrile]
< 1000	< 100	C[C@H]1Nc2ncnc3c2cc(C2(C#N)CC2)c(=O)n3CCCCCCN2CCC(CC2)C(F)(F)c2cccc1c2 [Compound 104, 1-((4R)-2,2-difluoro-4-methyl-6^7-oxo-6^7,6^8-dihydro-5-aza-6(4,8)-pyrido[2,3-d]pyrimidina-1(4,1)-piperidina-3(1,3)-benzenacyclododecaphane-6^6-yl)cyclopropane-1-carbonitrile]
< 1000	< 100	Cc1nc2c3cc(C4(C#N)CC4)c(=O)n(c3n1)CCCC/C=C\COCC(F)(F)c1cccc(c1F)[C@@H](C)N2 [Compound 105, 1-((3R,Z)-4^2,5,5-trifluoro-1^2,3-dimethyl-1^7-oxo-1^7,1^8-dihydro-7-oxa-2-aza-1(4,8)-pyrido[2,3-d]pyrimidina-4(1,3)-benzenacyclotetradecaphan-9-en-1^6-yl)cyclopropane-1-carbonitrile]
< 1000	< 100	CC1C/C=C\CCn2c(=O)c(C3CCS(=O)(=O)CC3)cc3c(ncnc32)N[C@H](C)c2cccc(c2F)C(F)(F)C2CCN(CC2)C1 (stereo partly drawn) [Compound 107, (4R,Z)-6^6-(1,1-dioxidotetrahydro-2H-thiopyran-4-yl)-3^2,2,2-trifluoro-4,12-dimethyl-6^7,6^8-dihydro-5-aza-6(4,8)-pyrido[2,3-d]pyrimidina-1(4,1)-piperidina-3(1,3)-benzenacyclotridecaphan-9-en-6^7-one]
< 1000	< 100	C[C@H]1Nc2ncnc3c2cc(C2CCS(=O)(=O)CC2)c(=O)n3CCCCn2cc(nn2)CN2CCC(CC2)C(F)(F)c2cccc1c2F [Compound 108, (6R,Z)-8^6-(1,1-dioxidotetrahydro-2H-thiopyran-4-yl)-5^2,4,4-trifluoro-6-methyl-8^7,8^8-dihydro-11H-7-aza-8(4,8)-pyrido[2,3-d]pyrimidina-3(1,4)-piperidina-1(4,1)-triazola-5(1,3)-benzenacyclododecaphan-8^7-one]
